Data reported in ChEMBL document CHEMBL3588845, “Protozoan Parasite Growth Inhibitors Discovered by Cross-Screening Yield Potent Scaffolds for Lead Discovery” (J Med Chem, 2015).
pEC50: −log10 of the molar value.

Assays:
[1] = system: Plasmodium falciparum; assay: Antiparasite activity against drug resistant Plasmodium falciparum W2 assessed as growth inhibition incubated for 72 hrs by SYBR green fluorescence assay; type: functional, organism-based; details: W2, 72 h
[2] = system: Plasmodium falciparum; assay: Antiparasite activity against drug resistant Plasmodium falciparum C235 assessed as growth inhibition incubated for 72 hrs by SYBR green fluorescence assay; type: functional, organism-based; details: C235, 72 h
[3] = system: Leishmania major; assay: Antiparasite activity against luciferase-expressing Leishmania major amastigotes isolated from infected in mouse RAW264.7 cells assessed as growth inhibition incubated for 96 hrs by luciferase reporter gene assay; type: functional, organism-based; details: RAW264.7, 96 h
[4] = Toxicity against human HepG2 cells incubated for 48 hrs by MTT assay; type: cell-based; details: read-out: TC50
[5] = system: Trypanosoma brucei; assay: Antiparasite activity against Trypanosoma brucei 427 assessed as growth inhibition incubated for 48 hrs by PrestoBlue based fluorescence assay; type: functional, organism-based; details: Trypanosoma brucei, 427, 48 h
[6] = system: Leishmania major; assay: Antiparasite activity against Leishmania major promastigotes assessed as growth inhibition incubated for 44 hrs by alamar blue dye based fluorescence assay; type: functional, organism-based
[7] = system: Plasmodium falciparum; assay: Antiparasite activity against Plasmodium falciparum D6 assessed as growth inhibition incubated for 72 hrs by SYBR green fluorescence assay; type: functional, organism-based; details: D6, 72 h
[8] = system: Trypanosoma cruzi; assay: Antiparasite activity against Trypanosoma cruzi Tulahuen expressing beta-galactosidase assessed as growth inhibition incubated for 96 hrs by CPRG dye based assay; type: functional, organism-based

In the case of `CN1CCN(S(=O)(=O)c2ccc(-c3ccc4c(Nc5ccc(OCc6cccc(F)c6)c(Cl)c5)nncc4c3)cc2)CC1`, the pEC50 [1] was 6.89, the pEC50 [2] was 7.12 and the pEC50 [3] was < 4.82. For the same compound, the CC50 at 48 h [4] was > 15000 nM, the pEC50 [5] was 5.92 and the pEC50 [6] was 5.89. The pEC50 [7] was 7.35 and the pEC50 [8] was 4.74.

For `Fc1cccc(COc2ccc(Nc3nncc4ccc(-c5cccc(N6CCOCC6)c5)cc34)cc2Cl)c1`, the pEC50 [1] was 6.21, the pEC50 [2] was 6.40 and the pEC50 [3] was 5.77. For the same compound, the CC50 at 48 h [4] was > 15000 nM, the pEC50 [5] was 6.54 and the pEC50 [6] was < 4.82. For the same compound, the pEC50 [7] was 6.96 and the pEC50 [8] was < 4.30.

With `CN1CCN(S(=O)(=O)c2ccc(-c3ccc4ccnc(Nc5ccc(OCc6cccc(F)c6)c(Cl)c5)c4c3)cc2)CC1` the pEC50 [1] was 6.70, the pEC50 [2] was 7.05 and the pEC50 [3] was < 4.82. The CC50 at 48 h [4] was > 15000 nM, the pEC50 [5] was 5.74 and the pEC50 [6] was < 4.82. The pEC50 [7] was 7.40 and the pEC50 [8] was < 4.30.

For `O=S(=O)(c1ccc(-c2cc3c(Nc4ccc(OCc5ccccc5)c(Cl)c4)ncnc3s2)cc1)N1CCOCC1`, the CC50 at 48 h [4] was > 15000 nM.

With `Fc1cccc(COc2ccc(Nc3ncnc4sc(-c5cccc(N6CCOCC6)c5)cc34)cc2Cl)c1` the CC50 at 48 h [4] was > 15000 nM.

With `CN1CCN(S(=O)(=O)c2ccc(-c3ccc4ncc(C#N)c(Nc5ccc(OCc6cccc(F)c6)c(Cl)c5)c4c3)cc2)CC1` the pEC50 [1] was 6.70, the pEC50 [2] was 6.96 and the pEC50 [3] was < 4.82. The CC50 at 48 h [4] was > 15000 nM, the pEC50 [5] was 5.96 and the pEC50 [6] was < 4.82. The pEC50 [7] was 7.09 and the pEC50 [8] was < 4.30.

In the case of `CN1CCN(S(=O)(=O)c2ccc(-c3cc4ncnc(Nc5ccc(OCc6cccc(F)c6)c(Cl)c5)c4s3)cc2)CC1`, the CC50 at 48 h [4] was > 15000 nM.

With `CN1CCCN(S(=O)(=O)c2ccc(-c3ccc4ncnc(Nc5ccc(OCc6cccc(F)c6)c(Cl)c5)c4c3)cc2)CC1` the pEC50 [3] was 5.68, the CC50 at 48 h [4] was 1100 nM and the pEC50 [6] was 5.44. It also gave a pEC50 [7] of 7.34 and a pEC50 [8] of 6.29.

For `O=C(Cn1ccnc1[N+](=O)[O-])NCc1ccccc1` [BENZNIDAZOLE], the pEC50 [8] was 5.92.

With `CN1CCCN(S(=O)(=O)c2ccc(-c3cc4ncnc(Nc5ccc(OCc6cccc(F)c6)c(Cl)c5)c4s3)cc2)CC1` the CC50 at 48 h [4] was > 15000 nM.

With `Fc1cccc(COc2ccc(Nc3nncc4cc(-c5cccc(N6CCOCC6)c5)ccc34)cc2Cl)c1` the pEC50 [1] was 6.21, the pEC50 [2] was 6.47 and the pEC50 [3] was 5.66. The CC50 at 48 h [4] was > 15000 nM, the pEC50 [5] was 5.85 and the pEC50 [6] was < 4.82. For the same compound, the pEC50 [7] was 6.62 and the pEC50 [8] was < 4.30.

In the case of `O=S(=O)(c1ccc(-c2ccc3cnnc(Nc4ccc(OCc5ccccc5)c(Cl)c4)c3c2)cc1)N1CCOCC1`, the pEC50 [1] was 5.77, the pEC50 [2] was 5.92 and the pEC50 [3] was < 5.40. The CC50 at 48 h [4] was > 5200 nM, the pEC50 [5] was 6.07 and the pEC50 [6] was < 5.47. For the same compound, the pEC50 [7] was 6.27 and the pEC50 [8] was < 4.30.

With `CN1CCCN(S(=O)(=O)c2ccc(-c3ccc4c(Nc5ccc(OCc6cccc(F)c6)c(Cl)c5)nccc4c3)cc2)CC1` the pEC50 [1] was 5.66, the pEC50 [2] was 6.00 and the pEC50 [3] was 5.36. For the same compound, the CC50 at 48 h [4] was > 15000 nM, the pEC50 [5] was 6.41 and the pEC50 [6] was 6.36. The pEC50 [7] was 6.39 and the pEC50 [8] was 4.48.

`Fc1cccc(COc2ccc(Nc3ccnc4cc(-c5cccc(N6CCOCC6)c5)ccc34)cc2Cl)c1` showed a pEC50 [1] of 6.74, a pEC50 [2] of 7.10 and a pEC50 [3] of 5.43. The CC50 at 48 h [4] was > 5000 nM, the pEC50 [5] was 5.92 and the pEC50 [6] was 5.85. It also gave a pEC50 [7] of 7.21 and a pEC50 [8] of 5.57.

In the case of `Cc1ccc(C(=O)Nc2ccc(S(=O)(=O)O)c3cc(S(=O)(=O)O)cc(S(=O)(=O)O)c23)cc1NC(=O)c1cccc(NC(=O)Nc2cccc(C(=O)Nc3cc(C(=O)Nc4ccc(S(=O)(=O)O)c5cc(S(=O)(=O)O)cc(S(=O)(=O)O)c45)ccc3C)c2)c1` [SURAMIN], the pEC50 [5] was 7.40.

For `O=S(=O)(c1ccc(-c2ccc3c(Nc4ccc(OCc5ccccc5)c(Cl)c4)cnnc3c2)cc1)N1CCOCC1`, the pEC50 [1] was 6.28, the pEC50 [2] was 6.52 and the pEC50 [3] was < 4.82. For the same compound, the CC50 at 48 h [4] was > 11000 nM, the pEC50 [5] was 5.92 and the pEC50 [6] was < 4.82. The pEC50 [7] was 6.82 and the pEC50 [8] was 4.82.

For `Fc1cccc(COc2ccc(Nc3cnnc4cc(-c5cccc(N6CCOCC6)c5)ccc34)cc2Cl)c1`, the pEC50 [1] was 6.64, the pEC50 [2] was 6.39 and the pEC50 [3] was < 4.82. The CC50 at 48 h [4] was 11000 nM, the pEC50 [5] was 6.05 and the pEC50 [6] was 5.01. It also gave a pEC50 [7] of 6.70 and a pEC50 [8] of 4.35.

With `CN1CCN(S(=O)(=O)c2ccc(-c3ccc4ncc(C#N)c(Nc5ccc(OCc6ccccc6)c(Cl)c5)c4c3)cc2)CC1` the pEC50 [1] was 6.29, the pEC50 [2] was 6.59 and the pEC50 [3] was < 4.82. For the same compound, the CC50 at 48 h [4] was > 15000 nM, the pEC50 [5] was 5.72 and the pEC50 [6] was 5.39. The pEC50 [7] was 6.68 and the pEC50 [8] was < 4.30.

With `O=S(=O)(c1ccc(-c2cc3ncnc(Nc4ccc(OCc5ccccc5)c(Cl)c4)c3s2)cc1)N1CCOCC1` the CC50 at 48 h [4] was > 5000 nM.

With `CN1CCCN(S(=O)(=O)c2ccc(-c3cc4c(Nc5ccc(OCc6cccc(F)c6)c(Cl)c5)ncnc4s3)cc2)CC1` the CC50 at 48 h [4] was > 15000 nM.

Compound `CN1CCCN(S(=O)(=O)c2ccc(-c3ccc4c(Nc5ccc(OCc6cccc(F)c6)c(Cl)c5)ccnc4c3)cc2)CC1` has a pEC50 [1] of 7.18, a pEC50 [2] of 7.17 and a pEC50 [3] of 6.05. The CC50 at 48 h [4] was 5000 nM, the pEC50 [5] was 7.06 and the pEC50 [6] was 6.40. For the same compound, the pEC50 [7] was 7.03 and the pEC50 [8] was 6.14.

In the case of `Fc1cccc(COc2ccc(Nc3ncnc4cc(-c5cccc(N6CCOCC6)c5)sc34)cc2Cl)c1`, the CC50 at 48 h [4] was > 15000 nM.

For `O=S(=O)(c1ccc(-c2ccc3c(Nc4ccc(OCc5ccccc5)c(Cl)c4)nncc3c2)cc1)N1CCOCC1`, the pEC50 [1] was 6.46, the pEC50 [2] was 6.77 and the pEC50 [3] was < 4.82. The CC50 at 48 h [4] was > 15000 nM, the pEC50 [5] was 6.00 and the pEC50 [6] was < 4.82. The pEC50 [7] was 6.96 and the pEC50 [8] was < 4.30.

With `CN1CCN(S(=O)(=O)c2ccc(-c3cc4c(Nc5ccc(OCc6cccc(F)c6)c(Cl)c5)ncnc4s3)cc2)CC1` the CC50 at 48 h [4] was > 15000 nM.

With `CN1CCN(S(=O)(=O)c2ccc(-c3ccc4c(Nc5ccc(OCc6cccc(F)c6)c(Cl)c5)nccc4c3)cc2)CC1` the pEC50 [1] was 6.44, the pEC50 [2] was 6.74 and the pEC50 [3] was < 4.82. For the same compound, the CC50 at 48 h [4] was > 15000 nM, the pEC50 [5] was 7.00 and the pEC50 [6] was 5.57. For the same compound, the pEC50 [7] was 6.96 and the pEC50 [8] was < 4.30.

In the case of `O=S(=O)(c1ccc(-c2ccc3nncc(Nc4ccc(OCc5ccccc5)c(Cl)c4)c3c2)cc1)N1CCOCC1`, the pEC50 [1] was 6.03, the pEC50 [2] was 5.85 and the pEC50 [3] was < 4.82. The CC50 at 48 h [4] was > 15000 nM, the pEC50 [5] was 5.92 and the pEC50 [6] was < 4.82. For the same compound, the pEC50 [7] was 6.09 and the pEC50 [8] was < 4.30.

Compound `CN1CCCN(S(=O)(=O)c2ccc(-c3ccc4nccc(Nc5ccc(OCc6cccc(F)c6)c(Cl)c5)c4c3)cc2)CC1` has a pEC50 [1] of 7.09, a pEC50 [2] of 6.96 and a pEC50 [3] of 5.64. For the same compound, the CC50 at 48 h [4] was 4300 nM, the pEC50 [5] was 6.85 and the pEC50 [6] was 6.40. For the same compound, the pEC50 [7] was 7.07 and the pEC50 [8] was 6.03.

`Fc1cccc(COc2ccc(Nc3ccnc4ccc(-c5cccc(N6CCOCC6)c5)cc34)cc2Cl)c1` showed a pEC50 [1] of 7.02, a pEC50 [2] of 7.37 and a pEC50 [3] of 5.40. For the same compound, the CC50 at 48 h [4] was 10000 nM, the pEC50 [5] was 6.00 and the pEC50 [6] was 6.05. The pEC50 [7] was 7.46 and the pEC50 [8] was 5.18.

Work on `C[C@@H]1[C@H](O)[C@@H](C)/C=C/C=C/C=C/C=C/C=C/C=C/C=C/[C@H](O[C@@H]2O[C@H](C)[C@@H](O)[C@H](N)[C@@H]2O)C[C@@H]2O[C@](O)(C[C@@H](O)C[C@@H](O)[C@H](O)CC[C@@H](O)C[C@@H](O)CC(=O)O[C@H]1C)C[C@H](O)[C@H]2C(=O)O` [AMPHOTERICIN B] yielded a pEC50 [3] of 7.33 and a pEC50 [6] of 7.05.
